Source: PMC4240912, “Multifaceted interplay between lipophilicity, protein interaction and luminescence parameters of non-intercalative ruthenium(II) polypyridyl complexes controlling cellular imaging and cytotoxic properties” (Journal of Biological Inorganic Chemistry, 2014)

Assays:
[1] = system: Human lung adenocarcinoma epithelial cell line (A549); assay: Alamar Blue cell viability, A549; type: cell-based; conditions: A549, 24 h
Experimental: 10% FBS, 1% peniciline and streptomycin and 0.2% fungizone. Cells were routinely cultured at 37 °C in a humidified incubator in 5% CO2 atmosphere.
Cell viability was measured using Alamar Blue assay. Cells were seeded on 96 wells plate with density of 1 × 10^4 cells per cm2 and cultured for 1 day. Then cells were incubated with various concentrations of compounds in medium with or without 2% FBS for 24 and 48 h under normoxic and hypoxic conditions in the darkness. Next cells were washed with PBS and incubated in Alamar Blue solution for 3 h. The cell viability was quantified at 605 nm using 560 nm excitation light (VICTOR 3V multilabel plate reader PerkinElmer or Tecan Infinite200 Reader). Experiments were performed in triplicates and each experiment was performed at least three times to get the mean values ± standard derivation. The viability was calculated with regard to the untreated cells control. The IC50 values were determined using Hill equation (Origin 9.0). […]

[2] = system: 4T1 breast cancer cell line; assay: Alamar Blue cell viability, 4T1; type: cell-based; conditions: 4T1, 24 h incubation
Experimental: 4T1 breast cancer cell line was cultured in RPMI-1640 (Gibco Invitrogen) with 10 % fetal bovine serum (FBS, the bovine serum albumin is a major component), 1 % penicillin and streptomycin and 0.2 % fungizone. Cells were routinely cultured at 37 °C in a humidified incubator in 5 % CO2 atmosphere. Cell viability was measured using Alamar Blue assay. Cells were seeded on 96-well plate with density of 10^4 cells per cm^2 and cultured for 24 h in medium with or without 2 % serum. Then cells were incubated with various concentrations of ruthenium compounds for 24 h in the dark. All used ruthenium complexes were freshly diluted in DMSO and then added to the appropriate medium to obtain the applied concentrations. The final DMSO concentration was kept constant at 0.05 % (v/v). Next cells were washed with PBS and incubated in AlamarBlue solution (21 times diluted in PBS) for 3 h. Alamar Blue test is based on the reduction of blue and non-fluorescent subtract (resazurin) to a pink and highly fluorescent product (resorufin) by the alive cells. Extract mechanism of the reduction is still unknown, but it is postulated that reduction occurs by mitochondrial or cytoplasmic enzymes, such as NADH dehydrogenase or diaphorase. It is still not known whether this process occurs intracellularly, at the plasma membrane surface or just in the medium as a chemical reaction. The cell viability was quantified at 605 nm using 560 nm excitation light (VICTOR 3V multilabel plate readers, PerkinElmer). Experiments were performed in triplicates and each experiment was performed at least three times to get the mean values ± standard deviation. The viability was calculated with regard to the untreated cells control. The IC50 values were determined using Hill equation (Origin 9.0): y=y0+y100-y0c^H/IC50^H+c^H

[3] = Luminescence quantum yield and lifetime in aqueous solution; type: physicochemical
Experimental: UV–Vis absorption spectra were recorded on a Perkin Elmer Lambda 35 spectrophotometer. Luminescence measurements were performed on a spectrofluorimeter Perkin Elmer LS55. The spectra were recorded at the room temperature in aqueous solution containing small amount of DMSO (<0.008 % v/v). The emission spectra were recorded between 470 and 860 nm upon excitation at 463 nm. The average of three scans was subjected to smoothing. For determination of the quantum yield of luminescence (Φ), aqueous solutions of [Ru(bpy)3]^2+ with a small amount of DMSO (<0.008 % v/v) were used as standards (Φ = 0.028 [14] and 0.042 [20] for air-equilibrium and deoxygenated conditions, respectively). The spectra were recorded for ruthenium complexes at the concentration less than 0.05 absorbance unit at the excitation wavelength. Values were calculated according to the following equation [21]: Φ=Φref×Aref/A×I/Iref×n^2/nref2, where I is the integrated intensity of luminescence, A is the optical density, and n is the refractive index, ref refers to the values for reference. The mean value from minimum three independent experiments was calculated.
The luminescence lifetime measurements were performed with a single photon counting technique using Fluorolog-3, Horiba Jobin Yvon. The excitation wavelength was set at 464 nm (NanoLed Diodes) and the average lifetime of luminescence was monitored at 621 nm. Luminescence decays were collected with 1,000 counts in the peak. The instrument response functions were measured using a light scattering solution of Ludox (colloidal silica, Sigma-Aldrich). Experiments were conducted at room temperature. The DAS6 software (HORIBA Scientific) was used for deconvolution of the obtained decays and for calculation of the lifetime values. The quality of the fit was judged by the χ ^2 parameter (the goodness of fit evaluation). One-exponential fit was determined to be an optimal description of the obtained results for the ruthenium compounds.

[4] = system: 4T1 cells; assay: Ruthenium uptake measured by ICP-MS; type: cell-based; conditions: 4T1, [Ru-complex] = 2 µM, 24 h
Experimental: Cells were seeded on a 6-well plate with a density of 3 × 10^5 cells per cm^2. 24 h after the incubation ruthenium complexes were added at 2 µM concentration. Cells were incubated in medium without serum for 24 h. After incubation cells were washed twice with PBS, detached by trypsin (trypsin/EDTA from Gibco) treatment, diluted in PBS and counted. Cells were digested in concentrated nitric acid overnight at room temperature and then diluted with water. The ruthenium content of the sample was determined by the inductively coupled plasma mass spectrometry (ICP-MS). Results were calculated as ruthenium concentration per cell (assuming the average volume of cell was 1.7 pL [31]).

[5] = molecular target: human serum albumin (HSA) (Homo sapiens, UniProt P02768); assay: Luminescence quantum yield and lifetime in the presence of HSA
Experimental: The protein stock solution was prepared by dissolving human serum albumin (HSA) in water and its concentration was determined spectrophotometrically from the molar absorptivity of 4.4 × 10^4 cm^−1 M^−1 at 280 nm. The emission spectra were recorded between 305 and 500 nm upon excitation at 295 nm resulting in selective excitation of tryptophan residue of HSA. The average of three scans was subjected to smoothing and the fluorescence intensities were corrected due to dilution effects. Protein-binding experiments were conducted by measuring fluorescence spectra of protein solution (1 μM) in the presence of different amounts of ruthenium compounds (0–10 μM) in PBS buffer pH 7.4 at 37 °C. Ru–protein solutions were allowed to incubate for 5 min before the emission spectra were recorded. The quantum yield and lifetime of luminescence for ruthenium complexes in the present of HSA (1 μM) was measured using the same procedure as described for ruthenium complexes alone (the HSA/Ru-complex ratio is given in the figure caption).

[6] = air-equilibrated conditions, excitation 463 nm

Chain of human serum albumin (HSA) (P02768 25-609): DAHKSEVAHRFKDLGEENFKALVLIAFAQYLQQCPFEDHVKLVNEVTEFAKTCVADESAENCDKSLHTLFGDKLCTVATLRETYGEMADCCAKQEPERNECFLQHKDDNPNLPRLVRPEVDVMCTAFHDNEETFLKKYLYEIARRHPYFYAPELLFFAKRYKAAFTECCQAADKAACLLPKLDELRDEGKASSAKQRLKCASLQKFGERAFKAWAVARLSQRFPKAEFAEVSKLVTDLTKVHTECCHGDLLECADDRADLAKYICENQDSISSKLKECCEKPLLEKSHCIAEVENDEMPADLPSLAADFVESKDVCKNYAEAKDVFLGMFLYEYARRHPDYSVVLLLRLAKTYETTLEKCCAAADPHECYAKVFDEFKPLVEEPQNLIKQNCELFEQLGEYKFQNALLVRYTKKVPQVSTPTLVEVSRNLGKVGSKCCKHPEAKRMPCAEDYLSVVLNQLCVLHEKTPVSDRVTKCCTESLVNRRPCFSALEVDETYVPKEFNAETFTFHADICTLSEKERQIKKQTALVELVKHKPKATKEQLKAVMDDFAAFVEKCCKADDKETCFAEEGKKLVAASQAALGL

| Compound | IC50 ([1]; with serum (2%)) | IC50 ([1]; without serum) | IC50 ([2]; medium with serum (2 %)) | IC50 ([2]; medium without serum) | τ, luminescence lifetime ([3]; air-equilibrated conditions) | φ, quantum yield of luminescence [3, 6] | τ, luminescence lifetime ([3]; deoxygenated conditions) | φ, quantum yield of luminescence ([3]; deoxygenated conditions) | relative ruthenium accumulation in cells [4] | φ, quantum yield of luminescence ([5]; PBS pH 7.4, [HSA]/[Ru] = 1) | φ, quantum yield of luminescence ([5]; PBS pH 7.4, in the absence of HSA) |
| --- | --- | --- | --- | --- | --- | --- | --- | --- | --- | --- | --- |
| O=[N+]([O-])c1nccn1CCCc1ccnc(-c2ccccn2)c1.[Ru+2].c1ccc(-c2ccnc3c2ccc2c(-c4ccccc4)ccnc23)cc1.c1ccc(-c2ccnc3c2ccc2c(-c4ccccc4)ccnc23)cc1 [[Ru(dip)2(bpy-NitroIm)]^2+] | 17.5 ± 5.7 µM | 11.8 ± 1.2 µM | 18.8 ± 1.29 µM | 10.6 ± 1.05 µM |  |  |  |  |  |  |  |
| [Ru+2].c1ccc(-c2ccccn2)nc1.c1ccc(-c2ccnc3c2ccc2c(-c4ccccc4)ccnc23)cc1.c1ccc(-c2ccnc3c2ccc2c(-c4ccccc4)ccnc23)cc1 [[Ru(dip)2(bpy)]^2+] | 27.7 ± 1.2 µM | 13.5 ± 5.3 µM | 13.6 ± 1.75 µM | 6.79 ± 1.09 µM | 760 ± 10 ns | 0.0367 ± 0.0004 | 2.51 ± 0.01 µs | 0.1245 ± 0.0004 |  |  |  |
| Cc1ccnc(-c2cc(C)ccn2)c1.[Ru+2].c1ccc(-c2ccnc3c2ccc2c(-c4ccccc4)ccnc23)cc1.c1ccc(-c2ccnc3c2ccc2c(-c4ccccc4)ccnc23)cc1 [[Ru(dip)2(CH3bpy-CH3)]^2+] | 11.6 ± 2.19 µM | 5.47 ± 0.87 µM | 9.32 ± 1.37 µM | 4.9 ± 0.3 µM | 690 ± 10 ns | 0.0254 ± 0.0009 | 2.23 ± 0.01 µs | 0.0778 ± 0.0016 |  |  |  |
| [Ru(dip)2(1,3-dicyclohexyl-1-[4-carbonyl-(4′-methyl-2,2′-bipyridyl)]-urea)]Cl2 [[Ru(dip)2(CH3bpy-DCU)]^2+] | 7.22 ± 0.34 µM | 5.43 ± 0.11 µM | 9.01 ± 1.33 µM | 4.71 ± 0.18 µM | 460 ± 10 ns | 0.0044 ± 0.0002 | 1.85 ± 0.02 µs | 0.0049 ± 0.0002 | highest accumulation | 0.0472 | 0.0076 |
| Cc1ccnc(-c2cc(C(=O)[O-])ccn2)c1.[Ru+2].c1ccc(-c2ccnc3c2ccc2c(-c4ccccc4)ccnc23)cc1.c1ccc(-c2ccnc3c2ccc2c(-c4ccccc4)ccnc23)cc1 [[Ru(dip)2(CH3bpy-COO)]^+] | 9.79 ± 0.89 µM | 6.05 ± 1.87 µM | 13.9 ± 3 µM | 8.66 ± 1.47 µM | 530 ± 10 ns | 0.0226 ± 0.0012 | 1.02 ± 0.01 µs | 0.0429 ± 0.0004 | much smaller accumulation than the rest of the studied complexes |  |  |
